What all share (format): cell-based
Assay [1] addresses T1, Human RAR-related Orphan Receptor Gamma (RORγ) (Homo sapiens, UniProt P51449).
T1 sequence (P51449 269-508 limits assumed): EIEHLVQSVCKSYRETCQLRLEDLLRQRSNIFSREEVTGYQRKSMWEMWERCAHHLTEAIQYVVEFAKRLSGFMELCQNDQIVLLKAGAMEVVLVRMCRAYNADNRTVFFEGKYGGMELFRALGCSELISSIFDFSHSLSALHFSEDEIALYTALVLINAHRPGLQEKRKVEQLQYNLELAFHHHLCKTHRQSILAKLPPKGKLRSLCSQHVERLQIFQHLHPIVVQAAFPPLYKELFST
Briefly: RORγ assay (GAL4-RORγ hybrid luciferase reporter, Indigo Biosciences). Particulars: inverse-agonist activity, GAL4-RORγ reporter cells, 23 hours. The essentials: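 […]engineered human reporter cell line expressing GAL4-DBD/RORγ-LBD hybrid with GAL4-UAS luciferase; constitutive activity measured as inverse agonism. Cells treated with compound (7.8-2000 nM) for 23 h at 37 °C; luminescence normalized to DMSO, IC50 by variable-slope fit, with parallel viability readout to flag non-specific inhibition.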
(Reporter assays use an easily measured gene product as a stand-in for the process of interest.)

Assay [2] concerns Nrf2 transcription factor. The assay is described as follows: AREc32 luciferase reporter assay. Particulars: Homo sapiens; AREc32 cells, 19 hours; concentration required to increase GST ARE luciferase reporter activity by 2-fold; read-out: NRF2 ARE 2-Fold (EC2×). In outline: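 AREc32 cells (MCF-7 with firefly luciferase under eight rat GSTA2 ARE copies) treated 19 h with compound (0.4-200 nM or 3.9-2000 nM) in triplicate. Luminescence normalized to DMSO as fold-induction, capped at 50-fold. EC2× = concentration giving 2-fold reporter increase, interpolated from variable-slope fit.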

Assay [3] deals with IL-17A. The assay is described as follows: IL-17 release from differentiated primary human T-cells (IL-17A HTRF assay). Particulars: primary human CD4+ T cells differentiated into Th17 cells, 45-hour incubation, IL-17A in supernatant; read-out: hIL17 IC50. The essentials: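 Primary human CD4+ T cells (~2×10^5/well) given compound (2–500 or 4–1000 nM, 0.1% DMSO), CD3/CD28-activated and Th17-differentiated (TGF-β, IL-6, IL-23, IL-1β) for 45 h at 37° C. Supernatant IL-17A by HTRF against standard curve, normalized to vehicle; IC50 by variable-slope regression, with parallel CyQuant viability.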
For orientation: Time-resolved FRET reads energy transfer from a long-lived donor to a nearby acceptor.

The structures appear in SMILES notation. pIC50: −log10 of the molar value. Where only a bound is given, the exact number is not on record here.

The values below come from patent US11993574B2, “Pyrazole and imidazole compounds for inhibition of IL-17 and RORgamma” (REATA PHARMACEUTICALS, INC., priority 2018, dated 2024).

`C[C@H]1C(=O)C(C#N)=C[C@@]2(C)c3c(c(-c4ccccc4F)nn3-c3nc4cc(C(F)(F)F)ccc4s3)CC[C@H]12` [T88]: the pIC50 in assay [1] is 6.66; in assay [3], 7.96. For the same molecule, the EC (2-fold) in assay [2] came out at 0.743 µM.
`Cc1ccc(-n2nc(-c3ccccc3)c3c2[C@]2(C)C=C(C#N)C(=O)[C@H](C)[C@H]2CC3)nc1` [T31]: the pIC50 in assay [1] was 7.04; in assay [3], 7.00. In addition, the EC (2-fold) in assay [2] came to 0.298 µM.
`C[C@H]1C(=O)C(C#N)=C[C@@]2(C)c3c(c(-c4ccccc4F)nn3-c3ccc(-c4cncnc4)cc3)CC[C@H]12` [T82]: the results for the pIC50 in assay [1] and in assay [3] were 7.36 and 7.20, respectively. Besides, in assay [2], the EC (2-fold) worked out at 0.208 µM.
The matching figures for `Cc1noc(-c2ccc(-n3nc(-c4ccccc4F)c4c3[C@]3(C)C=C(C#N)C(=O)[C@H](C)[C@H]3CC4)cc2)n1` [T95]: 7.21, 7.40 and 0.185 µM.
Consider `C[C@H]1C(=O)C(C#N)=C[C@@]2(C)c3c(c(-c4ccccc4)nn3-c3ccc(-c4ccccc4F)cc3)CC[C@H]12` [T36], for which the pIC50 is 7.06 in assay [1] and 7.66 in assay [3]. The EC (2-fold) in assay [2] was determined as 0.233 µM.
For the molecule `CC(C)c1ccc(-n2nc(-c3ccccc3)c3c2[C@]2(C)C=C(C#N)C(=O)[C@H](C)[C@H]2CC3)cc1` [T25], the results for the pIC50 in assay [1] and in assay [3] were 7.04 and 7.55, respectively. In addition, the EC (2-fold) in assay [2] stood at 0.149 µM.
Turning to `C[C@H]1C(=O)C(C#N)=C[C@@]2(C)c3nc(-c4cccc5ncccc45)n(-c4cccc(F)c4)c3CC[C@H]12` [T136], the pIC50 was 6.72 in assay [1] and 6.84 in assay [3]. The EC (2-fold) in assay [2] worked out at 0.753 µM.
The like results for `C[C@H]1C(=O)C(C#N)=C[C@@]2(C)c3nn(-c4ccc(-c5ccccc5)cc4)c(-c4ccncn4)c3CC[C@H]12` [T120] were, in that order, 7.04, 7.27 and 0.908 µM.
For `C[C@H]1C(=O)C(C#N)=C[C@@]2(C)c3nc(-c4ccnc5ccccc45)n(-c4cccc(F)c4)c3CC[C@H]12` [T135], the pIC50 in assay [1] was 6.85; in assay [3], 6.80. In assay [2], the EC (2-fold) is 0.896 µM.
As for `C[C@H]1C(=O)C(C#N)=C[C@@]2(C)c3nc(-c4ccc(C5CC5)nc4)n(-c4cccc(F)c4)c3CC[C@H]12` [T142], the pIC50 in assay [1] was 7.12; in assay [3] it was 6.81. Further, the EC (2-fold) in assay [2] turned out to be 0.861 µM.
As to `C[C@H]1C(=O)C(C#N)=C[C@@]2(C)c3nc(-c4ccnc(N5CCOCC5)c4)n(-c4cnn(C)c4)c3CC[C@H]12` [T160], the results for the pIC50 in assay [1] and in assay [3] were 6.25 and 6.33, respectively. Moreover, the EC (2-fold) in assay [2] is > 2 µM.
Take `COc1ccc(-n2nc3c(c2-c2ccccc2)CC[C@@H]2[C@@H](C)C(=O)C(C#N)=C[C@@]32C)cc1` [T116]: the pIC50 is 7.10 in assay [1] and 6.72 in assay [3]. Besides, the EC (2-fold) in assay [2] was 0.483 µM.
Regarding `C[C@H]1C(=O)C(C#N)=C[C@@]2(C)c3nc(Cc4ccccc4)n(-c4cccc(F)c4)c3CC[C@H]12` [T140], the figures for the pIC50 in assay [1] and in assay [3] were 6.95 and 6.54, respectively. Also, the EC (2-fold) in assay [2] came to 1.27 µM.
The like results for `COc1ccc(-n2nc(-c3ccccc3)c3c2[C@]2(C)C=C(C#N)C(=O)[C@H](C)[C@H]2CC3)cc1` [T14] were, in that order, 7.22, 7.24 and 0.147 µM.
`C[C@H]1C(=O)C(C#N)=C[C@@]2(C)c3nn(-c4ccc(-c5ccccc5)cc4)c(-c4cccnc4)c3CC[C@H]12` [T125]: the results for the pIC50 in assay [1] and in assay [3] were 6.86 and 7.07, respectively. In addition, the EC (2-fold) in assay [2] was determined as 0.877 µM.
The like results for `C[C@H]1C(=O)C(C#N)=C[C@@]2(C)c3c(c(-c4ccccc4)nn3-c3ccc(-c4cccc(CO)c4)cc3)CC[C@H]12` [T45] were, in that order, 7.36, 7.66 and 0.147 µM.
The like results for `Cc1nc(-c2ccc(-n3nc(-c4ccccc4F)c4c3[C@]3(C)C=C(C#N)C(=O)[C@H](C)[C@H]3CC4)cc2)no1` [T94] were, in that order, 7.19, 7.62 and 0.146 µM.
As to `C[C@H]1C(=O)C(C#N)=C[C@@]2(C)c3c(c(NC4CCC4)nn3-c3ccc(-c4ccccc4)cc3)CC[C@H]12` [T78], the pIC50 in assay [1] is 7.21; in assay [3], 7.32. In addition, the EC (2-fold) in assay [2] was 0.534 µM.
Consider `Cc1noc(C)c1-c1cccc(-c2nc3c(n2-c2cccc(F)c2)CC[C@@H]2[C@@H](C)C(=O)C(C#N)=C[C@@]32C)c1` [T150], for which the pIC50 in assay [1] was 6.87; in assay [3] it was 6.98. In assay [2], the EC (2-fold) was 0.488 µM.
For the molecule `C[C@H]1C(=O)C(C#N)=C[C@@]2(C)c3c(c(-c4ccc(F)cc4)nn3-c3ccc(-c4cncc(F)c4)cc3)CC[C@H]12` [T105], the pIC50 in assay [1] is 7.17; in assay [3], 7.68. Moreover, the EC (2-fold) in assay [2] is 0.361 µM.
`C[C@H]1C(=O)C(C#N)=C[C@@]2(C)c3c(c(-c4ccncn4)nn3-c3ccc(-c4ccccc4)nc3)CC[C@H]12` [T64]: the pIC50 is 6.91 in assay [1] and 6.84 in assay [3]. Also, the EC (2-fold) in assay [2] came to 0.636 µM.
The matching figures for `CC(C)c1ccc(-c2nc3c(n2Cc2ccc(F)cc2)CC[C@@H]2[C@@H](C)C(=O)C(C#N)=C[C@@]32C)cc1` [T167]: 6.61, 7.28 and 1.11 µM.
Take `C[C@H]1C(=O)C(C#N)=C[C@@]2(C)c3c(c(-c4ccccc4F)nn3-c3nc(-c4ccccc4)cs3)CC[C@H]12` [T87]: the pIC50 in assay [1] was 6.16; in assay [3], 7.57. Besides, the EC (2-fold) in assay [2] came out at 1.26 µM.
For `C[C@H]1C(=O)C(C#N)=C[C@@]2(C)c3nc(-c4cccc(-c5cncnc5)c4)n(-c4cccc(F)c4)c3CC[C@H]12` [T147], the pIC50 in assay [1] is 6.97; in assay [3], 6.73. The EC (2-fold) in assay [2] is 0.515 µM.
`C[C@H]1C(=O)C(C#N)=C[C@@]2(C)c3c(c(-c4ccncn4)nn3-c3ccc(C(F)(F)F)cn3)CC[C@H]12` [T63]: the pIC50 in assay [1] is 6.70; in assay [3], 6.82. Also, the EC (2-fold) in assay [2] was determined as 0.725 µM.
In the case of `C[C@H]1C(=O)C(C#N)=C[C@@]2(C)c3c(c(-c4ccccc4F)nn3-c3ccc(-c4ccccc4)cc3)CC[C@H]12` [T66], the pIC50 in assay [1] is 7.24; in assay [3], 7.72. The EC (2-fold) in assay [2] came to 0.128 µM.
With `C[C@H]1C(=O)C(C#N)=C[C@@]2(C)c3c(c(-c4ccncn4)nn3-c3ccc(-c4ccnc(CO)c4)cc3)CC[C@H]12` [T55], the results for the pIC50 in assay [1] and in assay [3] were 6.76 and 6.83, respectively. The EC (2-fold) in assay [2] was found to be 0.609 µM.
On to `COCCn1c(-c2ccc(C(C)C)cc2)nc2c1CC[C@@H]1[C@@H](C)C(=O)C(C#N)=C[C@@]21C` [T164], for which the negative-log IC50 (pIC50) was 6.63 in assay [1] and 6.80 in assay [3]. In addition, the EC (2-fold) in assay [2] was > 2 µM.
On to `Cc1cnnc(-c2ccc(-n3nc(-c4ccc(F)cc4)c4c3[C@]3(C)C=C(C#N)C(=O)[C@H](C)[C@H]3CC4)cc2)c1` [T179], for which the pIC50 in assay [1] is 7.43; in assay [3], 7.35. Moreover, the EC (2-fold) in assay [2] stood at 0.232 µM.
Take `Cc1ccc(-n2nc(-c3ccccc3)c3c2[C@]2(C)C=C(C#N)C(=O)[C@H](C)[C@H]2CC3)cn1` [T32]: the negative-log IC50 (pIC50) in assay [1] is 6.91; in assay [3], 6.77. Besides, in assay [2], the EC (2-fold) was found to be 0.258 µM.
For `C[C@H]1C(=O)C(C#N)=C[C@@]2(C)c3c(c(-c4ccccc4F)nn3-c3nc4ccccc4s3)CC[C@H]12` [T92], the pIC50 in assay [1] is 6.47; in assay [3], 7.55. Besides, the EC (2-fold) in assay [2] is 0.491 µM.
The matching figures for `C[C@H]1C(=O)C(C#N)=C[C@@]2(C)c3c(c(-c4ccccc4)nn3CC(F)(F)F)CC[C@H]12` [T3]: 6.56, 7.04 and 1.46 µM.
Regarding `C[C@H]1C(=O)C(C#N)=C[C@@]2(C)c3c(c(-c4ccc(F)cc4)nn3-c3ccc(-c4ncon4)cc3)CC[C@H]12` [T183], the pIC50 is 6.95 in assay [1] and 7.17 in assay [3]. Moreover, the EC (2-fold) in assay [2] came to 0.526 µM.
With `C[C@H]1C(=O)C(C#N)=C[C@@]2(C)c3nn(C4CCOCC4)c(-c4ccccc4)c3CC[C@H]12` [T28], the figures for the negative logarithm of the IC50 (pIC50) in assay [1] and in assay [3] were 7.05 and 6.87, respectively. For the same molecule, the EC (2-fold) in assay [2] worked out at 0.719 µM.
For `C[C@H]1C(=O)C(C#N)=C[C@@]2(C)c3nc(-c4cccc(-c5ccccc5)c4)n(-c4cccc(F)c4)c3CC[C@H]12` [T128], the values for the pIC50 in assay [1] and in assay [3] were 6.80 and 6.93, respectively. Also, the EC (2-fold) in assay [2] turned out to be 0.818 µM.

As a reminder, the pIC50 is the negative decadic logarithm of the IC50, by convention in mol/L.
